Broadly, the pIC50 is the IC50 on a negative log10 scale, so that one unit is a factor of ten.

SMILES strings stand for the structures. pIC50: −log10 of the molar value. Where only a bound is given, the exact number is not on record here.

This note sets out measurements from patent publication EP4763839A1 (Pamplona Therapeutics (Shenzhen) Co., Ltd., priority 2023, dated 2025).

The target of this test is T1, IRAK4 (Homo sapiens, UniProt Q9NWZ3).
T1 sequence (Q9NWZ3 1-460): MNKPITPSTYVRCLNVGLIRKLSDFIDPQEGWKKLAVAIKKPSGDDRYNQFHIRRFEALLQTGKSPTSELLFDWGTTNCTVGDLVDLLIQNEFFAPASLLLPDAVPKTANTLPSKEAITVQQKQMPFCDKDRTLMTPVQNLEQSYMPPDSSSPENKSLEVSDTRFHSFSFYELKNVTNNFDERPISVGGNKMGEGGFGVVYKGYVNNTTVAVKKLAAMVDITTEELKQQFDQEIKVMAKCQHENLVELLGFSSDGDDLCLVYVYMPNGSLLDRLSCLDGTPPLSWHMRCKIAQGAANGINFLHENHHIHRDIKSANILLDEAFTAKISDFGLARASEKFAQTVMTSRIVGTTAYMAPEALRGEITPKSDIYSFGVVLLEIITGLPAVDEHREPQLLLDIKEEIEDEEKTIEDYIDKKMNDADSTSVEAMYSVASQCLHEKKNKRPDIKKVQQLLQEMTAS
Kind of test: Assay for inhibitory effect of compound on IRAK4 kinase activity (KinEASE-STK S1 HTRF kit). Particulars: kinase 8 nM, ATP 80 µM, 37°C 90 minutes; read-out: IRAK4 HTRF IC50. Format: biochemical. The method, then: Example 1: Kinase activity assay
Assay for inhibitory effect of compound on IRAK4 kinase activity
The inhibitory effect of the compound on IRAK4 kinase activity was measured using the KinEASE-STK S1 serine/threonine kinase kit (Cisbio). The specific method was as follows: the compound was dissolved in dimethyl sulfoxide and then subjected to 3-fold serial dilution in dimethyl sulfoxide, yielding final test compound concentrations in the reaction system ranging from 5,000 nM to 0.0254 nM. The kinase at a final concentration of 8 nM was added, followed by incubation at rt for 15 minutes. Subsequently, biotinylated STK1 substrate at a final concentration of 400 nM and adenosine triphosphate (ATP) at a final concentration of 80 µM were sequentially added, and the mixture was incubated at 37°C for 90 minutes. Then, the reaction was terminated by adding an anti-phosphoserine/threonine antibody conjugated with a europium cryptate and streptavidin-conjugated XL665 to the reaction system. After incubation at rt for 1 hour, the fluorescence intensity at emission wavelengths of 620 nm and 665 nm for each well was measured using an EnVision microplate reader (PerkinElmer) in HTRF mode. The ratio value was calculated using the formula: Ratio = (665 nm/620 nm)×10^4 The inhibition rate of the compound at each concentration was calculated using the formula: Inhibition% = [1-(Signal sample-Signal min)/(Signal max-Signal min)]×100. Subsequently, the dose-response curve was fitted by nonlinear curve fitting of log concentration versus inhibition rate using Fit Modela (205) in XLfit to give the IC50 value of the compound for inhibition of protein activity.
In general terms: Time-resolved FRET reads energy transfer from a long-lived donor to a nearby acceptor.

For the compound `NS(=O)(=O)c1nn(-c2ccccc2)cc1NC(=O)c1cccc(-c2cn[nH]c2)n1` [Compound A93], the negative logarithm of the IC50 (pIC50) is more than 7.00.
The value for `CNc1ccc(-n2cc(NC(=O)c3cccc(C(F)(F)F)n3)c(C(N)=O)n2)cc1` [Compound A10] was 6.00 to 7.00; that for `NC(=O)c1nn(-c2ccc(N3CCN(C(=O)c4ccccc4)CC3)cc2)cc1NC(=O)c1cccc(C(F)(F)F)n1` [Compound A28] was more than 7.00.
The value for `CC(C)(O)c1cn(-c2ccccc2)nc1NC(=O)c1cccc(C(F)(F)F)n1` [Compound A61, N-(4-(2-hydroxypropan-2-yl)-1-phenyl-1H-pyrazol-3-yl)-6-(trifluoromethyl)picolinamide] was less than 6.00.
Then `O=C(Nc1cn(-c2ccccc2)nc1C1CCC1)c1cccc(C(F)(F)F)n1` [Compound A72, N-(3-cyclobutyl-1-phenyl-1H-pyrazol-4-yl)-6-(trifluoromethyl)picolinamide], with less than 6.00; and `O=C(Nc1cn(-c2cccnc2)nc1C(=O)NC1CC1)c1cccc(-c2ccn[nH]2)n1` [Compound A257, N-(3-(Cyclopropylcarbamoyl)-1-(pyridin-3-yl)-1H-pyrazol-4-yl)-6-(1H-pyrazol-5-yl)picolinamide], with more than 7.00; and `CC(C)(O)c1nn(-c2ccccc2)cc1NC(=O)c1cccc(C(F)(F)F)n1` [Compound A46, N-(3-(2-hydroxypropan-2-yl)-1-phenyl-1H-pyrazol-4-yl)-6-(trifluoromethyl)picolinamide], with 6.00 to 7.00.
As for `CNC(=O)c1ccc(-n2cc(NC(=O)c3cccc(C(F)(F)F)n3)c(C(N)=O)n2)cc1` [Compound A14], the pIC50 was more than 7.00.
The value for `CN(C)C(=O)c1ccc(-n2cc(NC(=O)c3cccc(C(F)(F)F)n3)c(C(N)=O)n2)cc1` [Compound A15] was more than 7.00; that for `CS(=N)(=O)c1nn(-c2ccccc2)cc1NC(=O)c1cccc(-c2cc[nH]n2)n1` (stereo not drawn) [Compound A96, N-(3-(S-methylsulfonimidoyl)-1-phenyl-1H-pyrazol-4-yl)-6-(1H-pyrazol-3-yl)picolinamide] was 6.00 to 7.00.
The value for `CC(C)(O)c1nn(-c2ccccc2)cc1NC(=O)c1cccc(-c2ccn[nH]2)n1` [Compound A240, N-(3-(2-Hydroxypropan-2-yl)-1-phenyl-1H-pyrazol-4-yl)-6-(1H-pyrazol-5-yl)picolinamide] was more than 7.00; that for `CC(=O)c1nn(-c2ccccc2)cc1NC(=O)c1cccc(-c2ccn[nH]2)n1` [Compound A241, N-(3-Acetyl-1-phenyl-1H-pyrazol-4-yl)-6-(1H-pyrazol-5-yl)picolinamide] was more than 7.00.
Then `O=C(Nc1cn(-c2ccccc2)nc1C(=O)CC(F)(F)F)c1cccc(-c2ccn[nH]2)n1` [Compound A236, N-(1-Phenyl-3-(3,3,3-trifluoropropanoyl)-1H-pyrazol-4-yl)-6-(1H-pyrazol-5-yl)picolinamide], with 6.00 to 7.00; and `NC(=O)c1nc(-c2ccccc2)[nH]c1NC(=O)c1cccc(C(F)(F)F)n1` [Compound A54], with less than 6.00.
For `NS(=O)(=O)c1nn(C2CCC2)cc1NC(=O)c1cnn2ccc(-c3ccn[nH]3)nc12` [Compound A293, N-(1-cyclobutyl-3-sulfamoyl-1H-pyrazol-4-yl)-5-(1H-pyrazol-5-yl)pyrazolo[1,5-a]pyrimidine-3-carboxamide], the pIC50 was more than 7.00.
The value for `NCc1ccc(-n2cc(NC(=O)c3cccc(C(F)(F)F)n3)c(C(N)=O)n2)cc1` [Compound A20] was more than 7.00.
Then `NC(=O)c1nn(-c2cncnc2)cc1NC(=O)c1cccc(C(F)(F)F)n1` [Compound A45], with 6.00 to 7.00; and `CNC1CC(c2nn(-c3ccccc3)cc2NC(=O)c2cccc(C(F)(F)F)n2)C1` (stereo not drawn) [Compound A44, N-(3-(3-(Methylamino)cyclobutyl)-1-phenyl-1H-pyrazol-4-yl)-6-(trifluoromethyl)picolinamide], with less than 6.00.
The value for `NC(=O)c1nn(-c2ccccc2)cc1NC(=O)c1cccc(-c2cn[nH]c2)n1` [Compound A89] was more than 7.00; that for `CC(=O)Nc1ccc(-n2cc(NC(=O)c3cccc(C(F)(F)F)n3)c(C(N)=O)n2)cc1` [Compound A12] was more than 7.00; that for `O=C(Nc1cn(-c2ccccc2)nc1C(=O)C(F)F)c1cccc(-c2ccn[nH]2)n1` [Compound A244, N-(3-(2,2-difluoroacetyl)-1-phenyl-1H-pyrazol-4-yl)-6-(1H-pyrazol-5-yl)picolinamide] was more than 7.00.
As to `O=C(Nc1cn(-c2ccccc2)nc1C(=O)NC1CC1)c1cccc(-c2ccn[nH]2)n1` [Compound A250, N-(3-(Cyclopropylcarbamoyl)-1-phenyl-1H-pyrazol-4-yl)-6-(1H-pyrazol-5-yl)picolinamide], the negative-log IC50 (pIC50) is more than 7.00.
In the case of `CNS(=O)(=O)c1nn(-c2ccccc2)cc1NC(=O)c1cccc(-c2ccn[nH]2)n1` [Compound A248, N-(3-(N-Methylsulfamoyl)-1-phenyl-1H-pyrazol-4-yl)-6-(1H-pyrazol-5-yl)picolinamide], the negative logarithm of the IC50 (pIC50) was more than 7.00.
The value for `N#Cc1cnn2c(C(=O)Nc3cn(C4CCCCC4)nc3C(F)F)ccc2c1` [Compound A266, 3-cyano-N-(1-cyclohexyl-3-(difluoromethyl)-1H-pyrazol-4-yl)pyrrolo[1,2-b]pyridazine-7-carboxamide] was 6.00 to 7.00.
For the compound `NC(=O)c1nn(-c2ccc(CO)cc2)cc1NC(=O)c1cccc(C(F)(F)F)n1` [Compound A18], the pIC50 is 6.00 to 7.00.
The value for `NC(=O)c1cn(-c2ccccc2)nc1NC(=O)c1cccc(C(F)(F)F)n1` [Compound A4] was less than 6.00.
The value for `NS(=O)(=O)c1nn(-c2ccccc2)cc1NC(=O)c1cccc(-n2ccnc2)n1` [Compound A261, 6-(1H-Imidazol-1-yl)-N-(1-phenyl-3-sulfamoyl-1H-pyrazol-4-yl)picolinamide] was more than 7.00; that for `NC(=O)c1nc(-c2ccccc2)sc1NC(=O)c1cccc(C(F)(F)F)n1` [Compound A56, 2-Phenyl-5-(6-(trifluoromethyl)picolinamido)thiazole-4-carboxamide] was less than 6.00.
Then `NC(=O)c1[nH]c(-c2ccccc2)cc1NC(=O)c1cccc(C(F)(F)F)n1` [Compound A48], with more than 7.00; and `NC(=O)c1nn(-c2ccc(N)cc2)cc1NC(=O)c1cccc(C(F)(F)F)n1` [Compound A9], with 6.00 to 7.00.
For `NC(=O)c1cc(-c2ccccc2)sc1NC(=O)c1cccc(C(F)(F)F)n1` [Compound A51], the negative-log IC50 (pIC50) is less than 6.00.
Then `NC(=O)c1nn(-c2ccc(C(=O)O)c(F)c2)cc1NC(=O)c1cccc(C(F)(F)F)n1` [Compound A17], with 6.00 to 7.00; and `NC(=O)c1nn(-c2ccc(O)cc2)cc1NC(=O)c1cccc(C(F)(F)F)n1` [Compound A6], with more than 7.00.
The value for `O=C(Nc1cn(-c2ccccc2)nc1C1CC(O)C1)c1cccc(C(F)(F)F)n1` (stereo not drawn) [Compound A65, N-(3-(3-hydroxycyclobutyl)-1-phenyl-1H-pyrazol-4-yl)-6-(trifluoromethyl)picolinamide] was less than 6.00; that for `CS(=N)(=O)c1nn(-c2ccccc2)cc1NC(=O)c1cccc(-c2cn[nH]c2)n1` (stereo not drawn) [Compound A97, N-(3-(S-methylsulfonimidoyl)-1-phenyl-1H-pyrazol-4-yl)-6-(1H-pyrazol-4-yl)picolinamide] was more than 7.00.
The value for `N#Cc1nn(-c2ccccc2)cc1NC(=O)c1cccc(C(F)(F)F)n1` [Compound A64, N-(3-cyano-1-phenyl-1H-pyrazol-4-yl)-6-(trifluoromethyl)picolinamide] was less than 6.00; that for `O=C(NC1CC1)c1nn(C2CCC2)cc1NC(=O)c1cnn2ccc(-c3ccn[nH]3)nc12` [Compound A286, N-(1-cyclobutyl-3-(cyclopropylcarbamoyl)-1H-pyrazol-4-yl)-5-(1H-pyrazol-5-yl)pyrazolo[1,5-a]pyrimidine-3-carboxamide] was 6.00 to 7.00.
As for `NS(=O)(=O)c1nn(C2CCCCC2)cc1NC(=O)c1cccc(-c2ccn[nH]2)n1` [Compound A260, N-(1-Cyclohexyl-3-sulfamoyl-1H-pyrazol-4-yl)-6-(1H-pyrazol-5-yl)picolinamide], the pIC50 is more than 7.00.
As to `O=C(Nc1cn(-c2ccccc2)nc1C(=O)C(F)(F)F)c1cccc(-c2ccn[nH]2)n1` [Compound A243, N-(1-Phenyl-3-(2,2,2-trifluoroacetyl)-1H-pyrazol-4-yl)-6-(1H-pyrazol-5-yl)picolinamide], the negative logarithm of the IC50 (pIC50) is more than 7.00.
